Columns and labels:
[1] = biological target: T1, human norepinephrine transporter (hNET) (Homo sapiens, UniProt P23975); experiment: Human transporter binding studies: radioligand binding to cloned hNET ([3H]nisoxetine); details: for Kd: HEK-293 cell membranes, 0.5 nM [3H]nisoxetine, 22° C., 60 minutes, geometric mean of at least three experiments; for specificity for hNET compared to venlafaxine (in words): comparison of Kd values with venlafaxine
T1 construct: expressed in transfected cells
Procedure: (§1) The cells were incubated in 10% CO2, 90% air at 37° C. and 100% humidity. The hNET cell cultures contained 250 μg/mL geneticin sulfate. The cells were grown to 70–80% confluency prior to harvesting.
(§2) Cell membranes containing hSERT, hNET, or hDAT were prepared from the cell lines to assay ligand binding for each of the transporters. […] The washed cells were incubated for 5 minutes at 38° C. in 10 mL solution 1 containing 100 mM ethylene glycol-bis N,N,N′,N′-tetraacetic acid (EGTA). The cells were then scraped from the flask surface with a rubber spatula, placed into a centrifuge tube, and collected by centrifugation at 1000×g for 5 minutes at 4° C. The resulting supernatant was discarded, and the cell pellet was resuspended in 0.5 to 1.0 mL of the appropriate binding buffer (described below). The resuspended cell pellet was homogenized using a Polytron for 10 seconds at setting 6. The resulting homogenate was centrifuged at about 36,000×g for 10 minutes at 4° C. The supernatant was discarded, and the pellet was resuspended in the same volume of the appropriate binding buffer and centrifuged again. The supernatant was discarded, and the final pellet containing cell membranes was resuspended in the appropriate binding buffer and stored at −80° C. until use.
To assess binding to the cloned hNET, cells expressing hNET were homogenized in 50 mM Tris-HCl with 300 mM NaCl and 5 mM KCl (pH 7.4). […] A reaction to determine non-specific binding consisted of 25 μg cell membrane protein, 0.5 nM [^3H]nisoxetine, and 1 μM final concentration of unlabeled nisoxetine. The reactions were incubated at 22° C. for 60 minutes. Following incubation, the reactions were terminated by rapid filtration through separate GF/B filter strips pretreated with 0.2% polyethylenimine in a 48-well Brandel cell harvester. The cell membrane-containing filter strips were then rinsed five times with ice-cold 0.9% NaCl. After rinsing, individual filters were cut from the strip and placed in a scintillation vial containing 6.5 mL of Redi-Safe (Beckman Instruments, Fullerton, Calif.). Radioactivity was measured with a Beckman liquid scintillation counter (LS 5000TD).
(§3) The program was modified to calculate the Hill coefficient (nH). Data are presented as geometric mean ±S.E.M. of at least three independent experiments. One-component models and two-component models were compared using the root mean square error of each fit and the F test.

[2] = biological target: T2, human serotonin transporter (hSERT) (Homo sapiens, UniProt P31645); experiment: Human transporter binding studies: radioligand binding to cloned hSERT ([3H]imipramine); details: for Kd: HEK-293 cell membranes, 1.0 nM [3H]imipramine, 22° C., 60 minutes, geometric mean of at least three experiments; for specificity for hSERT relative to hNET and hDAT (in words): comparison of Kd values between transporters; for specificity for hSERT compared to venlafaxine (in words): comparison of Kd values with venlafaxine
T2 construct: expressed in transfected cells
T2 sequence (P31645 whole entry): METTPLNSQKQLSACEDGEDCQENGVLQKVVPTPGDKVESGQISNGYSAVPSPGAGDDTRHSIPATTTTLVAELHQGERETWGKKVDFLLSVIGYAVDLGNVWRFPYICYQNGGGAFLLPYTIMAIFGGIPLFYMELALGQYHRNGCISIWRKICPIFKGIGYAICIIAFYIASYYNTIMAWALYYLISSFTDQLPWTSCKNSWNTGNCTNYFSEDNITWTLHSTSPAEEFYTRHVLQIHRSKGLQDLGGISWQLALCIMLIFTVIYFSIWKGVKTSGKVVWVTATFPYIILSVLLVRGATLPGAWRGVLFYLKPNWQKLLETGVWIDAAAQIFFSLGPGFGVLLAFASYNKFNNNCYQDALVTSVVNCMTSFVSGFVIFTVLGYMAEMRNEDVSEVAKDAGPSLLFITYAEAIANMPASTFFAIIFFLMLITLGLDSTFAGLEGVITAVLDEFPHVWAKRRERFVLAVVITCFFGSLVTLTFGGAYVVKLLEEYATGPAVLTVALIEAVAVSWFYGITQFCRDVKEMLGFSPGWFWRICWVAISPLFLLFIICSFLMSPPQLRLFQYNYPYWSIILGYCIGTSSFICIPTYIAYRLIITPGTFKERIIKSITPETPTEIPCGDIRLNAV
Procedure: as §1, §2
(§4) Radioligand binding assays for the indicated transporters were performed as follows. To assess binding to the cloned hSERT, cells expressing hSERT were homogenized in 50 mM Tris-HCl with 120 mM NaCl and 5 mM KCl (pH 7.4). […] The reactions were incubated at 22° C. for 60 minutes. Following incubation, the reactions were terminated by rapid filtration through separate GF/B filter strips pretreated with 0.2% polyethylenimine in a 48-well Brandel cell harvester. The cell membrane-containing filter strips were then rinsed five times with ice-cold 0.9% NaCl. After rinsing, individual filters were cut from the strip and placed in a scintillation vial containing 6.5 mL of Redi-Safe (Beckman Instruments, Fullerton, Calif.). Radioactivity was measured with a Beckman liquid scintillation counter (LS 5000TD).
as §3

[3] = biological target: T3, human dopamine transporter (hDAT) (Homo sapiens, UniProt Q01959); experiment: Human transporter binding studies: radioligand binding to cloned hDAT ([3H]WIN35428); details: for Kd: HEK-293 cell membranes, 1 nM [3H]WIN35428, 22° C., 1 hour, geometric mean of at least three experiments; for specificity for hDAT compared to venlafaxine (in words): comparison of Kd values with venlafaxine
T3 construct: expressed in transfected cells
T3 sequence (Q01959 whole entry): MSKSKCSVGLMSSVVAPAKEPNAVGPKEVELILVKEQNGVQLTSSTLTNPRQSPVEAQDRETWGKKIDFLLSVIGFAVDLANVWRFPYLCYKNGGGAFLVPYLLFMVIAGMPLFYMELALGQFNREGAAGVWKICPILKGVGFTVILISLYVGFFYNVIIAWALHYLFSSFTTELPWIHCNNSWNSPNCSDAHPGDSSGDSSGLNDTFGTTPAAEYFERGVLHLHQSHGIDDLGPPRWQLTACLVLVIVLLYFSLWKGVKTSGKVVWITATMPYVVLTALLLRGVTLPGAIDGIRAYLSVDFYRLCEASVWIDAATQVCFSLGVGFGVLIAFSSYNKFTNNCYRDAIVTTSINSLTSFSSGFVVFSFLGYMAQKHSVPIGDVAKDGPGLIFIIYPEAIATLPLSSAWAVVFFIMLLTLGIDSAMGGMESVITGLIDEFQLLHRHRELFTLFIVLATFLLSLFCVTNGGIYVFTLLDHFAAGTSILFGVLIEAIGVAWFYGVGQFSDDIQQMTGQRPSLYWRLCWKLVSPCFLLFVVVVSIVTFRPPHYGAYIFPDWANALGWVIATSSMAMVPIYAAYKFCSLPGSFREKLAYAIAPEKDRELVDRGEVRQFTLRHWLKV
Procedure: as §1, §2
as §4, with “To” for “Radioligand binding assays for the indicated transporters were performed as follows. To”, “hDAT,” for “hSERT,”, “hDAT” for “hSERT”, “NaCl” for “NaCl and 5 mM KCl”, “1 hour.” for “60 minutes.”
as §3

T1 sequence (P23975 whole entry): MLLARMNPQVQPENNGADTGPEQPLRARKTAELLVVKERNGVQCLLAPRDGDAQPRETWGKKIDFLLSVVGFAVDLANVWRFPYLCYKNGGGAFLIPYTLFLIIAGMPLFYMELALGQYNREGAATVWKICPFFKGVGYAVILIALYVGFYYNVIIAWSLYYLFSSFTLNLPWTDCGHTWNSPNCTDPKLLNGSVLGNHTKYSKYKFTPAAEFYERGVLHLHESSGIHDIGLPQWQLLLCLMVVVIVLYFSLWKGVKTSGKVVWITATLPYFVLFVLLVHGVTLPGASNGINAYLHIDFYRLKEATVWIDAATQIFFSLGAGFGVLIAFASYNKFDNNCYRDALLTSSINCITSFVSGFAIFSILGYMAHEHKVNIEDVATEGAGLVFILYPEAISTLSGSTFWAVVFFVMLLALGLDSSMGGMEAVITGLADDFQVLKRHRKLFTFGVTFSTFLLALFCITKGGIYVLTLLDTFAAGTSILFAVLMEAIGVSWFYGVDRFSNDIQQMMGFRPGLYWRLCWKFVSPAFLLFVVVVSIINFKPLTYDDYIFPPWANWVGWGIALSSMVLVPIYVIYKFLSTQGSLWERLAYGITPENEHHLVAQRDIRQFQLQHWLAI

Compound: CNCC(c1ccc2ccccc2c1)C(O)c1ccccc1 (racemic) [Compound A, racemic mixture of (2R, 3R)- and (2S, 3S)-N-methyl-3-hydroxy-2-(2′-naphthyl)-3-phenylpropylamine]
- binding to hNET ranked among all compounds tested (in words) [1]: strongest binding to hNET of all the compounds tested
- specificity for hNET relative to hSERT and hDAT (in words) [1]: greater specificity for hNET than for hSERT or hDAT
- Kd [1]: 0.25 nM
- Kd [2]: 6.3 nM
- Kd [3]: 130 nM

Compound: CNCC(c1ccc2ccccc2c1)C(O)c1ccccc1 (racemic) [Compound B, racemic mixture of (2S, 3R)- and (2R, 3S)-N-methyl-3-hydroxy-2-(2′-naphthyl)-3-phenylpropylamine]
- Kd [3]: 390 nM
- specificity for hDAT compared to venlafaxine (in words) [3]: greater specificity for hDAT than the parent analogue venlfaxine

Compound: CC(C)C(O)C(CN)c1ccc2ccccc2c1 (racemic) [Compound C, racemic mixture of (2R, 3S)- and (2S, 3R)-3-hydroxy-4-methyl-2-(2′-naphthyl)pentylamine]
- Kd [1]: 329 nM
- specificity for hNET compared to venlafaxine (in words) [1]: greater specificity for all three transporters compared to venlafaxine
- Kd [2]: 5.7 nM
- specificity for hSERT relative to hNET and hDAT (in words) [2]: more potent inhibitor of hSERT than of hNET or hDAT
- specificity for hSERT compared to venlafaxine (in words) [2]: greater specificity for all three transporters compared to venlafaxine
- Kd [3]: 880 nM
- specificity for hDAT compared to venlafaxine (in words) [3]: greater specificity for all three transporters compared to venlafaxine

Compound: CC(C)C(O)C(CN(C)C)c1ccc2ccccc2c1 (racemic) [Compound D, racemic mixture of (2R, 3S)- and (2S, 3R)-N,N-dimethyl-3-hydroxy-4-methyl-2-(2′naphthyl)pentylamine]
- Kd [1]: 14.6 nM
- specificity for hNET compared to venlafaxine (in words) [1]: more potent inhibitor of all three transporters compared to vanlafaxine
- Kd [2]: 0.3 nM
- specificity for hSERT relative to hNET and hDAT (in words) [2]: stronger binding to hSERT than to hNET or hDAT
- specificity for hSERT compared to venlafaxine (in words) [2]: more potent inhibitor of all three transporters compared to vanlafaxine
- Kd [3]: 180 nM
- specificity for hDAT compared to venlafaxine (in words) [3]: more potent inhibitor of all three transporters compared to vanlafaxine

Compound: NCC(c1ccc2ccccc2c1)C(O)c1ccccc1 (racemic) [E, racemic mixture of (2S, 3R)- and (2R, 3S)-3-hydroxy-2-(2′naphthyl)-3-phenylpropylamine]
- Kd [3]: 420 nM
- specificity for hDAT compared to venlafaxine (in words) [3]: greater specificity for hDAT compared to vanlafaxine

Compound: CN(C)C[C@H](c1ccc2ccccc2c1)[C@@H](O)c1ccccc1 (racemic) [F, racemic mixture of (2S, 3R)- and (2R, 3S)-N,N-dimethyl-3-hydroxy-2-(2′-naphthyl)-3-phenylpropylamine]
- specificity for hDAT compared to venlafaxine (in words) [3]: greater specificity for hDAT compared to vanlafaxine

Compound: CC(C)C(O)C(CN)c1ccc2ccccc2c1 (single isomer, unassigned) [Compound C1]
- Kd [1]: 150 nM
- specificity for hNET compared to venlafaxine (in words) [1]: greater specificity for all three transporters compared to venlafaxine
- Kd [2]: 7 nM
- specificity for hSERT relative to hNET and hDAT (in words) [2]: greater specificity for hSERT than for hNET of hDAT
- specificity for hSERT compared to venlafaxine (in words) [2]: greater specificity for all three transporters compared to venlafaxine
- Kd [3]: 1280 nM
- specificity for hDAT compared to venlafaxine (in words) [3]: greater specificity for all three transporters compared to venlafaxine

Compound: CC(C)C(O)C(CN)c1ccc2ccccc2c1 (single isomer, unassigned) [Compound C2]
- Kd [1]: 140 nM
- Kd [2]: 15.1 nM
- specificity for hSERT relative to hNET and hDAT (in words) [2]: greater specificity for hSERT than for hNET of hDAT
- Kd [3]: 1600 nM
- specificity for hDAT compared to venlafaxine (in words) [3]: greater specificity for all three transporters compared to venlafaxine

Compound: CC(C)[C@H](O)[C@@H](CN(C)C)c1ccc2ccccc2c1 [Compound D1, (2R, 3S)-N,N-dimethyl-3-hydroxy-4-methyl-2-(2′-naphthyl)pentylamine]
- Kd [1]: 7.4 nM
- specificity for hNET compared to venlafaxine (in words) [1]: greater specificity for all three transporters compared to venlafaxine
- Kd [2]: 4.2 nM
- specificity for hSERT compared to venlafaxine (in words) [2]: greater specificity for all three transporters compared to venlafaxine
- Kd [3]: 150 nM
- specificity for hDAT compared to venlafaxine (in words) [3]: greater specificity for all three transporters compared to venlafaxine

Compound: CC(C)[C@@H](O)[C@H](CN(C)C)c1ccc2ccccc2c1 [Compound D2, (2S, 3R)-N,N-dimethyl-3-hydroxy-4-methyl-2-(2′-naphthyl)pentylamine]
- Kd [1]: 60 nM
- specificity for hNET compared to venlafaxine (in words) [1]: greater specificity for all three transporters compared to venlafaxine
- Kd [2]: 2.6 nM
- specificity for hSERT relative to hNET and hDAT (in words) [2]: greater specificity for hSERT than for hNET or hDAT
- specificity for hSERT compared to venlafaxine (in words) [2]: greater specificity for all three transporters compared to venlafaxine
- Kd [3]: 800 nM
- specificity for hDAT compared to venlafaxine (in words) [3]: greater specificity for all three transporters compared to venlafaxine
